The values below come from patent publication US10206394B2, “Herbicidal compounds” (Syngenta Participations AG, priority 2014, dated 2019).

Where two headings read alike, the source gives them in different places.

Common to all, as to assay: Glasshouse assay for herbicidal activity (pre- and post-emergence), percentage phytotoxicity
Common to all, as to assay type: in vivo

Assay [1] relates to Echinochloa crus-galli (ECHCG). The conditions noted are these: Echinochloa crus-galli. Summed up:
(§1)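 Percent injury was estimated by eye on a scale where 0% means no damage and 100% complete damage. Ratings came 15 DAA post-emergence and 20 DAA pre-emergence, with plants held under 16 h light and 65% humidity at 24/18 °C or 20/16 °C day/night.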

Assay [2] has as its system Alopecurus myosuroides (ALOMY). The conditions noted are these: Alopecurus myosuroides. Put shortly:
as §1

In the next assay the test system is Avena fatua (AVEFA). The conditions noted are these: Avena fatua. Put shortly: as §1
The test system of a further assay is Lolium perenne (LOLPE). The conditions noted are these: Lolium perenne. Put shortly: as §1
The mark [3] stands for this setting: post-emergence, 360 h, 250 g/ha, post-emergence, 15 DAA, visual assessment (100%=total damage, 0%=no damage), read-out: Post-emergence herbicidal activity (percentage phytotoxicity) ECHCG POST.
[4] abbreviates: pre-emergence, 480 h, 250 g/ha, pre-emergence, 20 DAA, visual assessment (100%=total damage, 0%=no damage), read-out: Pre-emergence herbicidal activity (percentage phytotoxicity) ECHCG PRE.
The mark [5] stands for this setting: post-emergence, 360 h, 250 g/ha, post-emergence, 15 DAA, visual assessment (100%=total damage, 0%=no damage), read-out: Post-emergence herbicidal activity (percentage phytotoxicity) ALOMY POST.
The mark [6] stands for this setting: pre-emergence, 480 h, 250 g/ha, pre-emergence, 20 DAA, visual assessment (100%=total damage, 0%=no damage), read-out: Pre-emergence herbicidal activity (percentage phytotoxicity) ALOMY PRE.
[7] abbreviates: post-emergence, 360 h, 250 g/ha, post-emergence, 15 DAA, visual assessment (100%=total damage, 0%=no damage), read-out: Post-emergence herbicidal activity (percentage phytotoxicity) AVEFA POST.
The mark [8] stands for this setting: pre-emergence, 480 h, 250 g/ha, pre-emergence, 20 DAA, visual assessment (100%=total damage, 0%=no damage), read-out: Pre-emergence herbicidal activity (percentage phytotoxicity) AVEFA PRE.
The mark [9] stands for this setting: post-emergence, 360 h, 250 g/ha, post-emergence, 15 DAA, visual assessment (100%=total damage, 0%=no damage), read-out: Post-emergence herbicidal activity (percentage phytotoxicity) LOLPE POST.
[10] abbreviates: pre-emergence, 480 h, 250 g/ha, pre-emergence, 20 DAA, visual assessment (100%=total damage, 0%=no damage), read-out: Pre-emergence herbicidal activity (percentage phytotoxicity) LOLPE PRE.
Setting [11] is: post-emergence, 360 h, POST-emergence, rate 250 g/ha, visual score 15 DAA (100%=total damage, 0%=no damage), read-out: Post-emergence herbicidal activity (percentage phytotoxicity) ECHCG POST.
Where [12] appears, read: pre-emergence, 480 h, PRE-emergence, rate 250 g/ha, visual score 20 DAA (100%=total damage, 0%=no damage), read-out: Pre-emergence herbicidal activity (percentage phytotoxicity) ECHCG PRE.
Setting [13] is: post-emergence, 360 h, POST-emergence, rate 250 g/ha, visual score 15 DAA (100%=total damage, 0%=no damage), read-out: Post-emergence herbicidal activity (percentage phytotoxicity) ALOMY POST.
Where [14] appears, read: pre-emergence, 480 h, PRE-emergence, rate 250 g/ha, visual score 20 DAA (100%=total damage, 0%=no damage), read-out: Pre-emergence herbicidal activity (percentage phytotoxicity) ALOMY PRE.
Setting [15] is: post-emergence, 360 h, POST-emergence, rate 250 g/ha, visual score 15 DAA (100%=total damage, 0%=no damage), read-out: Post-emergence herbicidal activity (percentage phytotoxicity) AVEFA POST.
[16] abbreviates: pre-emergence, 480 h, PRE-emergence, rate 250 g/ha, visual score 20 DAA (100%=total damage, 0%=no damage), read-out: Pre-emergence herbicidal activity (percentage phytotoxicity) AVEFA PRE.
[17] abbreviates: post-emergence, 360 h, POST-emergence, rate 250 g/ha, visual score 15 DAA (100%=total damage, 0%=no damage), read-out: Post-emergence herbicidal activity (percentage phytotoxicity) LOLPE POST.
Setting [18] is: pre-emergence, 480 h, PRE-emergence, rate 250 g/ha, visual score 20 DAA (100%=total damage, 0%=no damage), read-out: Pre-emergence herbicidal activity (percentage phytotoxicity) LOLPE PRE.

With `C=C(C)CNC(=O)CC1CC(=O)C(c2c(C)cc(-c3ncc(Cl)cc3F)cc2C)C1=O` (stereo not drawn) [Compound B94], the pest or weed control at 250 g/ha in assay [1] (setting [3]) turned out to be 100%; in assay [1] (setting [4]), 100%; in assay [2] (setting [5]) it was 100%; in assay [2] (setting [6]), 100%; with Avena fatua (AVEFA) (setting [7]), 100%; in the assay with Avena fatua (AVEFA) (setting [8]), 90%. Further, the pest or weed control at 250 g/ha with Lolium perenne (LOLPE) (setting [9]) and in the assay with Lolium perenne (LOLPE) (setting [10]) was 100% in each case.
`CCc1cc(C)cc(C)c1C1C(=O)CC(CC(=O)NC(C)(C)C)C1=O` (stereo not drawn) [Compound B170]: the pest or weed control at 250 g/ha worked out at 100% in assay [1] (setting [11]); 100% in assay [1] (setting [12]); 100% in assay [2] (setting [13]); 100% in assay [2] (setting [14]); 90% with Avena fatua (AVEFA) (setting [15]); 90% with Avena fatua (AVEFA) (setting [16]). Moreover, the pest or weed control at 250 g/ha in the assay with Lolium perenne (LOLPE) (setting [17]) and in the assay on Lolium perenne (LOLPE) (setting [18]) was 100% throughout.
Take `Cc1cc(C)c(C2=C(OC(=O)C(C)(C)C)CC(CC(=O)N(C(=O)C(C)(C)C)C3COC3)C2=O)c(C)c1` (stereo not drawn) [Compound P12]: the pest or weed control at 250 g/ha in assay [1] (post-emergence, 360 h, Rate 250 g/ha, post-emergence, visual assessment 15 DAA, 100%=total damage, 0%=no damage, read-out: Post-emergence herbicidal activity (percentage phytotoxicity) ECHCG POST) turned out to be 60%; in assay [1] (pre-emergence, 480 h, Rate 250 g/ha, pre-emergence, visual assessment 20 DAA, 100%=total damage, 0%=no damage, read-out: Pre-emergence herbicidal activity (percentage phytotoxicity) ECHCG PRE), 70%; in assay [2] (post-emergence, 360 h, Rate 250 g/ha, post-emergence, visual assessment 15 DAA, 100%=total damage, 0%=no damage, read-out: Post-emergence herbicidal activity (percentage phytotoxicity) ALOMY POST) it was 80%; in assay [2] (pre-emergence, 480 h, Rate 250 g/ha, pre-emergence, visual assessment 20 DAA, 100%=total damage, 0%=no damage, read-out: Pre-emergence herbicidal activity (percentage phytotoxicity) ALOMY PRE), 20%; in the assay with Avena fatua (AVEFA) (post-emergence, 360 h, Rate 250 g/ha, post-emergence, visual assessment 15 DAA, 100%=total damage, 0%=no damage, read-out: Post-emergence herbicidal activity (percentage phytotoxicity) AVEFA POST), 60%; in the assay with Avena fatua (AVEFA) (pre-emergence, 480 h, Rate 250 g/ha, pre-emergence, visual assessment 20 DAA, 100%=total damage, 0%=no damage, read-out: Pre-emergence herbicidal activity (percentage phytotoxicity) AVEFA PRE), 0%. Moreover, the pest or weed control at 250 g/ha in the assay with Lolium perenne (LOLPE) (post-emergence, 360 h, Rate 250 g/ha, post-emergence, visual assessment 15 DAA, 100%=total damage, 0%=no damage, read-out: Post-emergence herbicidal activity (percentage phytotoxicity) LOLPE POST) came to 80%; with Lolium perenne (LOLPE) (pre-emergence, 480 h, Rate 250 g/ha, pre-emergence, visual assessment 20 DAA, 100%=total damage, 0%=no damage, read-out: Pre-emergence herbicidal activity (percentage phytotoxicity) LOLPE PRE), 60%.
Turning to `CCNC(=O)CC1CC(=O)C(c2c(C)cc(-c3ccc(C#N)cn3)cc2C)C1=O` (stereo not drawn) [Compound B318], the pest or weed control at 250 g/ha in assay [1] (setting [11]) came to 100%; in assay [1] (setting [12]), 90%; in assay [2] (setting [13]), 90%; in assay [2] (setting [14]), 90%; in the assay with Avena fatua (AVEFA) (setting [15]), 100%; in the assay on Avena fatua (AVEFA) (setting [16]), 90%. The figures for the pest or weed control at 250 g/ha in the assay with Lolium perenne (LOLPE) (setting [17]) and in the assay with Lolium perenne (LOLPE) (setting [18]) were 90% and 100%, respectively.
For `Cc1cc(C)c(C2C(=O)CC(CC(=O)NCC#CCCl)C2=O)c(C)c1` (stereo not drawn) [Compound B36], the pest or weed control at 250 g/ha in assay [1] (setting [3]) amounted to 20%; in assay [1] (setting [4]) it was 0%; in assay [2] (setting [5]), 30%; in assay [2] (setting [6]) it was 50%; in the assay on Avena fatua (AVEFA) (setting [7]) it was 40%; with Avena fatua (AVEFA) (setting [8]) it was 0%. The pest or weed control at 250 g/ha in the assay on Lolium perenne (LOLPE) (setting [9]) is 50%; with Lolium perenne (LOLPE) (setting [10]) it was 80%.
As to `C=CC(C)NC(=O)CC1CC(=O)C(c2c(C)cc(-n3cc(Cl)cn3)cc2C)C1=O` (stereo not drawn) [Compound B316], the pest or weed control at 250 g/ha in assay [1] (setting [11]) is 100%; in assay [1] (setting [12]), 90%; in assay [2] (setting [13]) it was 90%; in assay [2] (setting [14]), 90%; in the assay on Avena fatua (AVEFA) (setting [15]), 100%; in the assay on Avena fatua (AVEFA) (setting [16]), 80%. Besides, the pest or weed control at 250 g/ha in the assay with Lolium perenne (LOLPE) (setting [17]) amounted to 90%; with Lolium perenne (LOLPE) (setting [18]), 80%.
As for `Cc1cc(OCC(F)(F)F)cc(C)c1C1C(=O)CC(CC(=O)NCC2CC2)C1=O` (stereo not drawn) [Compound B210], the pest or weed control at 250 g/ha in assay [1] (setting [11]) worked out at 100%; in assay [1] (setting [12]) it was 100%; in assay [2] (setting [13]), 100%; in assay [2] (setting [14]) it was 100%; in the assay with Avena fatua (AVEFA) (setting [15]) it was 90%; with Avena fatua (AVEFA) (setting [16]) it was 80%. The figures for the pest or weed control at 250 g/ha in the assay with Lolium perenne (LOLPE) (setting [17]) and in the assay with Lolium perenne (LOLPE) (setting [18]) were 90% and 100%, respectively.
Regarding `Cc1cc(C)c(C2C(=O)CC(CC(=O)NCC3(C)CC3(Cl)Cl)C2=O)c(C)c1` (stereo not drawn) [Compound B82], the pest or weed control at 250 g/ha in assay [1] (setting [3]) is 50%; in assay [1] (setting [4]) it was 90%; in assay [2] (setting [5]), 70%; in assay [2] (setting [6]) it was 70%; with Avena fatua (AVEFA) (setting [7]) it was 60%; in the assay on Avena fatua (AVEFA) (setting [8]) it was 40%. Moreover, the pest or weed control at 250 g/ha in the assay on Lolium perenne (LOLPE) (setting [9]) came to 70%; with Lolium perenne (LOLPE) (setting [10]) it was 80%.
Consider `C/C=C/c1cc(C)c(C2C(=O)CC(CC(=O)N(C)CC)C2=O)c(C)c1` (stereo not drawn) [Compound B248], for which the pest or weed control at 250 g/ha in assay [1] (setting [11]) was 100%; in assay [1] (setting [12]), 60%; in assay [2] (setting [13]) it was 100%; in assay [2] (setting [14]) it was 50%; in the assay on Avena fatua (AVEFA) (setting [15]) it was 100%; in the assay with Avena fatua (AVEFA) (setting [16]), 50%. Further, the pest or weed control at 250 g/ha was 100% in the assay with Lolium perenne (LOLPE) (setting [17]) and 80% in the assay on Lolium perenne (LOLPE) (setting [18]).
